Active and inactive are the calls of the source. The rule behind the calls is not given here.
What follows are compounds tested against Thymidine phosphorylase (Escherichia coli K-12, UniProt P07650) (assay: Inhibition of Escherichia coli thymidine phosphorylase).
Sequence of Thymidine phosphorylase (P07650 whole entry): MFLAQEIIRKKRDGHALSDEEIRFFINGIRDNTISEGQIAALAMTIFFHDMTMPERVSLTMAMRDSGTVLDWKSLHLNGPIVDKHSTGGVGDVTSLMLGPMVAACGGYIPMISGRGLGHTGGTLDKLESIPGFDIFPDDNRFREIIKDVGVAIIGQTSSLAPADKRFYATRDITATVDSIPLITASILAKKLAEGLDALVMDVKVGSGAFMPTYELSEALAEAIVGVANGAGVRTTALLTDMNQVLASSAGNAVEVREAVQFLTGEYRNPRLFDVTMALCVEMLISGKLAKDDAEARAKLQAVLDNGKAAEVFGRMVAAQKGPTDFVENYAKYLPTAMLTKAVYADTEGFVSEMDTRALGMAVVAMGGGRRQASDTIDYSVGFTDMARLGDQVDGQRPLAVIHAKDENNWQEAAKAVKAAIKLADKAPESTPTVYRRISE

Row | SMILES | Ki [nM]
1 | Cc1cn([C@@H]2O[C@H](CO)[C@H]3C[C@@H](CP(=O)(O)O)O[C@H]32)c(=O)[nH]c1=O | 1000
2 | Nc1c(Br)c(=O)[nH]c(=O)n1CCCCCCCCP(=O)(O)O | 476000
3 | N=C1CCCN1Cc1[nH]c(=O)[nH]c(=O)c1Cl | 35

Continued by falling Ki, values first:

Row | Ki [nM] | SMILES
4 | 51 | O=c1[nH]c(Cn2ccnc2)c(F)c(=O)[nH]1
5 | 11 | Nc1nccn1Cc1[nH]c(=O)[nH]c(=O)c1F

The compounds below were run against Thymidine phosphorylase (Escherichia coli K-12) (UniProt P07650) (assay: Inhibition of Escherichia coli thymidine phosphorylase by spectrophotometry).
Sequence of Thymidine phosphorylase (Escherichia coli K-12) (P07650 whole entry, looked up): as the sequence (P07650 whole entry) above

Row | Activity | SMILES
6 | Active | Nc1nccn1Cc1[nH]c(=O)[nH]c(=O)c1F
